These results are taken from US4929736A, “Latent isocynate derivatives useful for deactivating enzymes” (Board of Trustees of the Wichita State University, priority 1986, dated 1990).

Each structure is given as a SMILES string. “Also recorded” adds a separate entry of the source. Like-named read-outs stand apart in the source and are kept apart here.

For the test, the target named is T1, Human leukocyte elastase (HLE) (Homo sapiens, UniProt P08246).
T1 construct: purchased Elastin Products, St. Louis, Mo
T1 sequence (P08246 30-267): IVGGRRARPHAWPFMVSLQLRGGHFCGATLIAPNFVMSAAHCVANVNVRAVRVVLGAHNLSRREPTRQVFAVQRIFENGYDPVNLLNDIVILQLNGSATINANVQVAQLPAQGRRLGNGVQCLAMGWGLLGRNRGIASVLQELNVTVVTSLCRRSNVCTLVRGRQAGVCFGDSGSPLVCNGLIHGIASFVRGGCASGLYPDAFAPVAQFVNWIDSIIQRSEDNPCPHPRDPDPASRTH
Nature of the test: Spectrophotometric assay of HLE inactivation (in vitro). The format is biochemical. On the procedure: The appropriate amount of inhibitor in acetonitrile was mixed with PPE in phosphate buffer solution and placed in a constant temperature bath. Aliquots were withdrawn at different time intervals and transferred to a cuvette containing 100 uL of substrate, 140 uL of acetonitrile, and 2 mL of phosphate buffer, pH 6.5. After incubating for 30 seconds, the absorbance change was monitored for two minutes at 347.5 nm. […] Controlled reactions for 100% PPE activity were run in the presence of acetonitrile. A similar procedure was followed for HLE.
The reaction of an irreversible inhibitor with PPE and HLE may be illustrated by the scheme shown below: [drawing 5] where EI is the noncovalently bound enzyme-inactivator complex and E-I is the final product with the inhibitor covalently bound to the enzyme. The kinetics data were analyzed according to known procedures. The apparent pseudo-first-order inactivation rate constants were determined from the slopes of semilogarithmic plots of enzymatic activity remaining versus time using the following equation: [formula] where Et /EO is the amount of active enzyme remaining after time "t".
The assay procedure used was the procedure identified relative to the tests above in Table I.
(kobsd) were determined by plotting in [E]t /[E]o vs time.

Setting [1] is: Table II monopotassium sulfonate salts, read-out: k2 /Ki (HLE).
Where [2] appears, read: Table III, inactive: no inhibition at 243fold excess of inhibitor over enzyme, 10min incubation.
[3] abbreviates: Table III, inactive: no inhibition at 243fold excess of inhibitor over enzyme, 10min incubation, read-out: kobsd /[I], inhibition of leukocyte elastase.
The mark [4] stands for this setting: Table VI, sulfur-containing amino acid esters, read-out: kobsd /[I], inhibition of HLE.
[5] abbreviates: Table V, succinimide derivatives, read-out: kobsd /[I], inhibition of leukocyte elastase.
Setting [6] is: Table IV, derivatives of phenylalanine, read-out: kobsd /[I], inhibition of leukocyte elastase.

With `COC(=O)[C@@H](NC(=O)S(=O)(=O)O)C(C)C` [Compound 3, Table II], under setting [1], the kinact/KI worked out at 800 M⁻¹ s⁻¹. The “Inhibition of HLE (in words)” value (listed as L-valine sulfonate salt) was “very potent inhibitors; also recorded: effective inhibitors”.
For the compound `O=C(Nc1ccccc1C(F)(F)F)S(=O)(=O)O` [Compound 5, Table III], the “kobsd /[I], inhibition of leukocyte elastase” value under setting [2] is “inactive”.
`O=C(NCCc1cccc(F)c1)ON1C(=O)CCC1=O` [Compound 25]: under setting [3], the kinact/KI stood at 823 M⁻¹ s⁻¹.
With `COC(=O)[C@H](C)NC(=O)S(=O)(=O)O` [Compound 2, Table II], the “Inhibition of HLE (in words)” value is on record as “devoid of any inhibitory activity”. Moreover, the “k2 /Ki (HLE)” value (Table II monopotassium sulfonate salts) was “inactive”.
Consider `CCSC[C@H](NC(=O)n1ccnc1)C(=O)OC` [Compound 10, Table VI], for which the kinact/KI under setting [4] was 4230 M⁻¹ s⁻¹.
Turning to `O=C(NCCc1cccc(F)c1)n1ccccc1=O` [Compound 22], the kinact/KI under setting [3] was 317 M⁻¹ s⁻¹.
Consider `CN(C)S(=O)(=O)ON1C(=O)CC(Cc2ccccc2)C1=O` (centres unmarked) [BENZYL, OSO2N(CH3)2], for which, under setting [5], the kinact/KI came out at 323 M⁻¹ s⁻¹.
With `O=C(NCc1cccc(F)c1)S(=O)(=O)O` [Compound 12, Table III], the “kobsd /[I], inhibition of leukocyte elastase” value under setting [2] was “inactive”.
For `COC(=O)[C@H](Cc1ccccc1)NC(=O)S(=O)(=O)[O-].[K+]` [Compound 9, Table II, N-(Sulfocarbonyl)-L-phenylalanine Methyl Ester, Monopotassium Salt], the kinact/KI under setting [1] was 530 M⁻¹ s⁻¹. In addition, the “Inhibition of HLE (in words)” value (listed as L-phenylalanine sulfonate salt, Monopotassium Salt) was “also deactivate HLE but were not as effective; also recorded: also inactivate HLE, but not as efficiently; also recorded: effective inhibitors”.
In the case of `COC(=O)[C@H](Cc1ccccc1)NC(=O)n1ccnc1` [Compound 28], under setting [6], the kinact/KI was 2070 M⁻¹ s⁻¹.
With `O=C(NCc1cccc(F)c1)n1ccnc1` [Compound 14], the “kobsd /[I], inhibition of leukocyte elastase” value under setting [2] was “inactive”.
On the same count and under the same terms, then `O=C(Nc1ccccc1)S(=O)(=O)O` [Compound 1, Table III], with “inactive”.
As to `COC(=O)C(Cc1cccc(F)c1)NC(=O)S(=O)(=O)O` (centres unmarked) [Compound 31], under setting [6], the kinact/KI came out at 57 M⁻¹ s⁻¹.
On to `O=C(NCCc1cccc(C(F)(F)F)c1)n1ccccc1=O` [Compound 23], for which, under setting [3], the kinact/KI is 11700 M⁻¹ s⁻¹.
Take `COC(=O)[C@H](Cc1ccccc1)NC(=O)n1ccccc1=O` [Compound 29]: the kinact/KI under setting [6] came to 2330 M⁻¹ s⁻¹.
Take `O=C(Nc1cccc(F)c1)n1ccnc1` [Compound 8, Table III]: the “kobsd /[I], inhibition of leukocyte elastase” value under setting [2] is “inactive”.
For the compound `O=C(NCCc1ccccc1)n1ccccc1=O` [Compound 21], the kinact/KI under setting [3] turned out to be 500 M⁻¹ s⁻¹.
On to `O=C(Nc1cccc(F)c1)S(=O)(=O)O` [Compound 4, Table III], for which the “kobsd /[I], inhibition of leukocyte elastase” value under setting [2] was “inactive”.
On the same count and under the same terms, then `O=C(Nc1cccc(Cl)c1)S(=O)(=O)O` [Compound 2, Table III], with “inactive”; and `O=C(Nc1ccccc1C(F)(F)F)n1ccnc1` [Compound 9, Table III], with “inactive”.
Consider `O=C(NCCc1ccccc1)ON1C(=O)CCC1=O` [Compound 24], for which the kinact/KI under setting [3] worked out at 927 M⁻¹ s⁻¹.
Consider `COC(=O)[C@H](CSCc1ccccc1)NC(=O)S(=O)(=O)O` [Compound 6, Table VI], for which, under “Table VI, sulfur-containing amino acid esters”, the “kobsd /[I], inhibition of HLE” value was “inactive”.
For the compound `O=C(Nc1ccc(Cl)cc1)S(=O)(=O)O` [Compound 3, Table III], under setting [2], the “kobsd /[I], inhibition of leukocyte elastase” value is “inactive”.
As for `O=C(NCCc1cccc(C(F)(F)F)c1)ON1C(=O)CCC1=O` [Compound 26], under setting [3], the kinact/KI is 13500 M⁻¹ s⁻¹.
With `COC(=O)CSC[C@H](NC(=O)n1ccnc1)C(=O)OC` [Compound 11, Table VI], the kinact/KI under setting [4] was 15 M⁻¹ s⁻¹.
For the compound `Cc1ccc(S(=O)(=O)ON2C(=O)CCC2=O)cc1`, under “Table V, succinimide derivatives”, the “kobsd /[I], inhibition of leukocyte elastase” value is “inactive”.
`O=C(Nc1cccc(C(F)(F)F)c1)n1ccnc1` [Compound 10, Table III]: under setting [2], the “kobsd /[I], inhibition of leukocyte elastase” value was “inactive”.
`O=C(NCCc1cccc(F)c1)S(=O)(=O)O` [Compound 17, Table III]: under setting [3], the kinact/KI amounted to 18 M⁻¹ s⁻¹.
As to `O=C1CC(Cc2ccccc2)C(=O)N1OS(=O)(=O)c1ccccc1` (centres unmarked), the kinact/KI under setting [5] is 1170 M⁻¹ s⁻¹.
